Columns and labels:
[1] = tested on: CD44v3 (CD44v3-His, whole cell extracts of COS-7 cells expressing CD44v3); experiment: MST binding of NGF, TrkA or FGF to CD44v3; conditions: whole cell extracts of COS-7 expressing CD44v3, NGF alone, TrkA alone or FGF control
Description: (§1) MST was conducted using an NT.115 A Pico MST instrument (Nano Temper Technologies GmbH) equipped with red and blue filter sets. The TrkA-His tagged extracellular domain protein (Ala 34-Gly423) (9966-TK-050; R&D Systems, United Kingdom), diluted to 200 nM in PBS-T buffer (supplied by the vendor), was labeled using a Monolith His-Tag Labeling Kit with RED-Tris-NTA (Nano Temper). The RED-Tris-NTA dye was diluted in PBS-T to 100 nM. The mix was incubated at RT in the dark for 30 min. Next, an extract expressing CD44v3-labeled protein (CD44v3-His) and ligand and/or TrkA was mixed at a 1:1 ratio and incubated at RT in the dark for 15 min. For the binding check, peptides and TrkA-His were used. Capillaries were filled individually and loaded into the instrument. The data were acquired using high MST power and 100% LED. The data were analyzed using MO Control Software (Nano Temper).
(§2) Fig. 1 The C-terminal region of CD44 variant 3 binds to TrkA. A Schematic representation of the CD44 gene and protein structure. Alternative splicing leads to the expression of CD44 variants, thus the insertion of exon 8 leads to the expression of a CD44 protein containing variant 3 (CD44v3) and the insertion of exon 11 leads to the expression of a CD44 containing variant 6 (CD44v6) (B) TrkA/CD44v3 complex formation in COS-7 cells expressing TrkA and CD44v3 was detected by the proximity ligation assay (PLA), which was performed 0, 5 and 30 min after the initiation of NGF (100 ng/ml) treatment. The images represent signals detected by PLA. Quantification of the red spots was performed by ImageJ software (30 randomly chosen fields per condition of three different experiments). Statistical analyses were performed using one-way ANOVA followed by Bonferroni’s posttest. Error bars represent the standard error of the mean (S.E.M.); *** p < 0.001. ns, nonsignificant. C NGF and/or TrkA binding to CD44v3 was measured by microscale thermophoresis (MST). MST experiments were performed on whole cell extracts of COS-7 cells expressing CD44v3. […]

[2] = tested on: TrkA-His tagged extracellular domain protein (Ala 34-Gly423); experiment: MST binding of CD44v3 mimetic peptides to TrkA; conditions: TrkA-His 200 nM labelled with RED-Tris-NTA, PBS-T
Description: as §1
Fig. 2 The C-terminal region of CD44v3 and the His112 residue of TrkA are involved in the CD44v3/TrkA interaction. TrkA/CD44v3 complex association was detected by the proximity ligation assay (PLA) in wild-type TrkA- or TrkA_H112A- and CD44v3-expressing COS-7 cells. Proximity ligation assays were performed after 0, 5 and 30 min of NGF treatment (100 ng/ml). Representative images of signals detected by PLA (A) and their quantification (B). Sequence of CD44 exon variant 3 and deletion mutant Δ3 or Δ4 (C). TrkA/CD44v3 complex association was detected by PLA in wild-type TrkA and CD44v3 wild type or CD44v3 deleted mutant Δ3 or Δ4 expressing COS-7 (D, E). Sequence of CD44v3 mimetic peptides (F) and structure (G). TrkA binding to CD44v3 mimetic peptides by microscale thermophoresis (H) and effects of CD44v3 mimetic peptides 3 (RDRHLSFSGSG) and 4 ([…]) on TrkA/CD44v3 complex formation (I, J). Quantification of PLA was performed using ImageJ software (30 fields per condition of three different experiments). Statistical analyses were performed using one-way ANOVA followed by Bonferroni’s posttest.
To block the TrkA-CD44v3 association, 4 mimetic peptides of CD44v3 were designed corresponding to zone 1 [(K) STSSNTISAG], zone 2 (WEPNEENEDE), zone 3 (RDRHLSFSGSG) and zone 4 (IDDDEDFISST) (Fig. 2F & G). The binding capacities of the CD44v3 mimetic peptides to TrkA were then measured by MST (Fig. 2H). […] To confirm mimetic peptide 4 binding, we assessed its ability to bind TrkA using nanoscale differential scanning fluorimetry (nanoDSF; Supplementary Fig. 6A & B).

[3] = tested on: TrkA/CD44v3 complex in MDA-MB-231 cells; experiment: PLA TrkA/CD44v3 complex formation in MDA-MB-231 cells; type: cell-based; conditions: NGF 100 ng/ml; 30 fields per condition, three experiments
Description: (§3) Cells (10,000 cells per well) were grown on acid-washed eight-well glass slides (Thermo Scientific) in the appropriate medium supplemented with 10% FBS for 24 h. After NGF treatment, paraformaldehyde (PAF)-fixed cells were incubated with 4% bovine serum albumin (BSA) or 5% FBS (for 1 h at 20 °C), followed by overnight incubation with primary antibodies (rabbit anti-TrkA or rabbit anti-IgG + mouse anti-pan-CD44; mouse anti-CD44v3; mouse anti-CD44v6; mouse anti-IgG2a; mouse anti-IgG2b; or mouse anti-IgG1). PLA was performed following the manufacturer’s instructions in the assay kit (Duolink PLA; Sigma–Aldrich). To obtain the correct representation of the PLA signal for each condition, 30 fields per condition were observed using a fluorescence microscope (Eclipse TiU; Nikon, Japan). The PLA signals (red dots) were automatically quantified using ImageJ software (with an in-house-developed plug-in). After PLA, statistical analyses were performed using GraphPad Prism software to determine the mean dot intensity in the cells.
Fig. 3 CD44v3 mimetic peptide 4 blocks the TrkA-CD44 association in MDA-MB-231 breast cancer cells. TrkA/CD44v3 (A) and TrkA/CD44v6 (B) complex associations were detected by the proximity ligation assay (PLA) in MDA-MB-231 breast cancer cells. Effects of a scramble peptide (SP) (C), CD44v3 mimetic peptide 3 (P3) and 4 (P4) (D) on TrkA/CD44v3 complex formation induced by NGF. Quantification of the PLA results was performed by ImageJ software (30 randomly chosen fields per condition of three different experiments). Statistical analyses were performed using one-way ANOVA followed by Bonferroni’s posttest. The error bars represent the standard error of the mean (S.E.M.); * p < 0.05, ** p < 0.01, *** p < 0.001; ns, not significant

[4] = tested on: TrkA/CD44v3 complex in COS-7 cells expressing TrkA and CD44v3; experiment: PLA TrkA/CD44v3 complex formation in COS-7 cells; type: cell-based, African green monkey (COS-7 cells); conditions: COS-7 expressing TrkA and CD44v3, NGF 100 ng/ml, 0, 5 and 30 min, 30 fields per condition, three experiments
Description: as §3, §2
Fig. 2 The C-terminal region of CD44v3 and the His112 residue of TrkA are involved in the CD44v3/TrkA interaction. TrkA/CD44v3 complex association was detected by the proximity ligation assay (PLA) in wild-type TrkA- or TrkA_H112A- and CD44v3-expressing COS-7 cells. […] Representative images of signals detected by PLA (A) and their quantification (B). […] TrkA/CD44v3 complex association was detected by PLA in wild-type TrkA and CD44v3 wild type or CD44v3 deleted mutant Δ3 or Δ4 expressing COS-7 (D, E). […] Quantification of PLA was performed using ImageJ software (30 fields per condition of three different experiments). […]

| Substance | binding to CD44v3 (in words) [1] | binding to TrkA by MST (in words) [2] | further results |
| --- | --- | --- | --- |
| FGF-1: fibroblast growth factor, positive control for CD44v3 binding | In contrast to FGF-1 (Supplementary Fig. 4), NGF did not bind to CD44v3 |  |  |
| FGF-2: FGF-2 (control), binding to CD44v3 | binding to CD44v3 but not to NGF was detected |  |  |
| KSTSSNTISAG [Peptide 1, CD44v3 mimetic peptide corresponding to zone 1 [(K) […]]] |  | neither peptide 1 ([…]) nor peptide 2 ([…]) could bind TrkA |  |
| RDRHLSFSGSG [Peptide 3, CD44v3 mimetic peptide corresponding to zone 3 (…)] |  |  | effect on TrkA/CD44v3 complex formation (PLA) in MDA-MB-231 cells [3]: neither a scramble peptide (Fig. 3C) nor mimetic peptide P3 (Fig. 3D) inhibited TrkA/CD44v3 complex formation following NGF treatment; effect on TrkA/CD44v3 complex formation (PLA) in COS-7 cells [4]: did not inhibit TrkA/CD44v3 complex formation; effect on TrkA/CD44v3 complex formation (PLA) in COS-7 cells ([4]; listed as P3): did not abolish complex formation; binding to TrkA by MST (in words) ([2]; listed as P3): also bound TrkA |
| WEPNEENEDE [Peptide 2, CD44v3 mimetic peptide corresponding to zone 2 (…)] |  | neither peptide 1 (KSTSSNTISAG) nor peptide 2 (WEPNEENEDE) could bind TrkA |  |
